From patent publication US20060223846A1, “Aza-bridged-bicyclic amino acid derivatives as alpha4 integrin antagonists” (priority 2005, published 2006)

Columns and labels:
[1] = target: α4β1 (Homo sapiens, UniProt P05556+P13612); assay: Ramos Cell Adhesion Assay (α4β1 Mediated Adhesion/VCAM-1); assay type: cell-based; set-up: Ramos cells, (50 μL at 2×10^6/mL) labeled with 5 μM Calcein AM; endogenous in cells; host or cells: Ramos cells; settings: Ramos cells on recombinant hVCAM-1; read-out: α4β1 IC50
In short: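 Ramos cells labeled with 5 μM Calcein AM adhered for 1 h at room temperature to wells coated with recombinant human VCAM-1 (4.0 μg/mL, pH 9.0) in presence of compounds. After washing, cells lysed in SDS buffer; fluorescence read at 485/530 nm.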

[2] = target: T1, human α4β7 (Homo sapiens, UniProt P13612+P26010); assay: α4β7-K562 Cell Adhesion Assay (α4β7 Mediated Adhesion/VCAM-1); assay type: cell-based; settings: K562 cells expressing human α4β7 on recombinant hVCAM-1; read-out: α4β7 IC50
T1 construct: expressed in transfected cells
T1 sequence (P13612 34-1032): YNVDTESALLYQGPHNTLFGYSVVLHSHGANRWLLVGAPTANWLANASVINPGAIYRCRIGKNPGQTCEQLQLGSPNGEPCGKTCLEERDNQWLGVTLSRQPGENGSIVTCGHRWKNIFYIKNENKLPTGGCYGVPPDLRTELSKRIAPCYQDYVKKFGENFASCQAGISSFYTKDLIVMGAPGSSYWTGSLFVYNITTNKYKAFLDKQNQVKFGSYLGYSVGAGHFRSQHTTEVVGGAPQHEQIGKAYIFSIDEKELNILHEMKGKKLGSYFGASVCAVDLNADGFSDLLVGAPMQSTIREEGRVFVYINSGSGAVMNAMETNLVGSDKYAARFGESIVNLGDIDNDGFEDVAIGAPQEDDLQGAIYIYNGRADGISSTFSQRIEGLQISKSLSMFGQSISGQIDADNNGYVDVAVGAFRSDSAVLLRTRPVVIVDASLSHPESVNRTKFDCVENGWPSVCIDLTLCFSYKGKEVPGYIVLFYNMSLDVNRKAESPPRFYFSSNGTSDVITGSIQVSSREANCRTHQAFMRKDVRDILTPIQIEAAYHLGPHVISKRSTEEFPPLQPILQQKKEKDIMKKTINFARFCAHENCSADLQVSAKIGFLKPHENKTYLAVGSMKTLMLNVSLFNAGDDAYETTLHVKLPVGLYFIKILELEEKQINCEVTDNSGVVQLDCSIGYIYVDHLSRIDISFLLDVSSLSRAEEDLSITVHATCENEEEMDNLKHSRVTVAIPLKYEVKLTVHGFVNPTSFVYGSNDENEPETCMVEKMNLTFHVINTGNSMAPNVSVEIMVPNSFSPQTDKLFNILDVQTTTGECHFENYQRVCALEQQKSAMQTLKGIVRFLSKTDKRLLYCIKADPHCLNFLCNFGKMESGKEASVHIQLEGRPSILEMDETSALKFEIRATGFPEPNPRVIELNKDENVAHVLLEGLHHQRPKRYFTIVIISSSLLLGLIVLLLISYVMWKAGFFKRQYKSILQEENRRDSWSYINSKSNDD
T1 sequence (P26010 20-798): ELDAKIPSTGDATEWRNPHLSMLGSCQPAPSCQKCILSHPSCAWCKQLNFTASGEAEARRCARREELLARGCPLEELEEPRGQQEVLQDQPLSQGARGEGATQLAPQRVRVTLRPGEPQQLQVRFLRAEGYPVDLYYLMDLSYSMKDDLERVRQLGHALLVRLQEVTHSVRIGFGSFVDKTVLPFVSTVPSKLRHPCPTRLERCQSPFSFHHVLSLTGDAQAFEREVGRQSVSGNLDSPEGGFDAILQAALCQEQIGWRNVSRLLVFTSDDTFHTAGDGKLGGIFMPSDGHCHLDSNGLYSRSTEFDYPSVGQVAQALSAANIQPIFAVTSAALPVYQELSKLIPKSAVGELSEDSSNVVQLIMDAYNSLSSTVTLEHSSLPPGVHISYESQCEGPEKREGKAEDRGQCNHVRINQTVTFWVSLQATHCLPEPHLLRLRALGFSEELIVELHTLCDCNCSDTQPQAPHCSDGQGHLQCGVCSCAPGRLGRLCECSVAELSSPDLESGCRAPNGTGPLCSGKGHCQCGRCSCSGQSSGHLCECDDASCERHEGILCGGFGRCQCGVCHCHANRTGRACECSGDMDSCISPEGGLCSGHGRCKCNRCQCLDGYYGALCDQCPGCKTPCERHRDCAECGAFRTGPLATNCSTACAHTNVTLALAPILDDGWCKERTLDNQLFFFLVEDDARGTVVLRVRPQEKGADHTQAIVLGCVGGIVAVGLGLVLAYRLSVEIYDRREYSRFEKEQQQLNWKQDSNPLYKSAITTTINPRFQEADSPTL
In short: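 Calcein AM-labelled K562 cells stably expressing human α4β7 adhered for 1 h at room temperature, with compound, to wells coated with recombinant hVCAM-1 (4.0 μg/mL, pH 9.0) and blocked with PBS/1% BSA. After washing, cells were lysed in 1% SDS/Tris pH 8.0 and fluorescence read at 485/530 nm.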

Sequence of α4β1 (P05556 21-798, one chain of several): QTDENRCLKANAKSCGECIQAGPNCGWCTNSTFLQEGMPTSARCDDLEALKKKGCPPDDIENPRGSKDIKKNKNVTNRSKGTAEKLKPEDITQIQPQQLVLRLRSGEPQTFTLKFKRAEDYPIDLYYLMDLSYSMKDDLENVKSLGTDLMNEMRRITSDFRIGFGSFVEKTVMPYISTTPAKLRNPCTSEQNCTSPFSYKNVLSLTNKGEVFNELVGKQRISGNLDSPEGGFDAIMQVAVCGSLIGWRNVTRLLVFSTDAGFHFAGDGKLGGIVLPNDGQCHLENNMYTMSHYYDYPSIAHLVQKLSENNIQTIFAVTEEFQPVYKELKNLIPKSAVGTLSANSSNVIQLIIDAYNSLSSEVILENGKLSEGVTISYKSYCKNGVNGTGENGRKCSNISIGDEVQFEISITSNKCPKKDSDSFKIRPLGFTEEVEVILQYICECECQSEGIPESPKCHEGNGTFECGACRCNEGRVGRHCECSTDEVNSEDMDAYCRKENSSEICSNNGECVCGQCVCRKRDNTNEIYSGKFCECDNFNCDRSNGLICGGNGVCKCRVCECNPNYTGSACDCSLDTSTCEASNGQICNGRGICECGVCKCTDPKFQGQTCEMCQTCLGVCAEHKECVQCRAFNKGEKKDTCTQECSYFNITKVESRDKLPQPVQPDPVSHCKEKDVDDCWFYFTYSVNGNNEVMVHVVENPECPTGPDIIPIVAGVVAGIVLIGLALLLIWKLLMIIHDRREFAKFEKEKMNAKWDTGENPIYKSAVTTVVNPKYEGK

Compound | IC50 [1] [nM] | IC50 [2] [nM]
CC(C)(C)CCN1C2CCC(CC2)[C@H]1C(=O)N[C@@H](Cc1ccc(NC(=O)c2c(Cl)cncc2Cl)cc1)C(=O)O [Cpd 16, 3-{4-[(3,5-dichloro-pyridine-4-carbonyl)-amino]-phenyl}-2-{[2-(3,3-dimethyl-butyl)-2-aza-bicyclo[2.2.2]octane-3-carbonyl]-amino}-propionic acid] | 47 | 94
O=C(Nc1ccc(CC(NC(=O)C2C3CCC(CC3)N2C(=O)Cc2ccsc2)C(=O)O)cc1)c1c(Cl)cncc1Cl (stereo not shown) [Cpd 3] | 43 | 41
